Data as given in patent US20110098180A1, “Herbicide-Resistant Plants, And Polynucleotides And Methods For Providing Same” (United States Department of Agriculture, priority 2002, published 2011).

Legend:
[1] = tested on: Hydrilla PDS Arg^304 → Threonine; test: Cross resistance to bleaching herbicides, in vitro PDS inhibition, non-His-tagged (Table 2); assay type: biochemical, Hydrilla verticillata; conditions: Threonine at 304 relative to Arginine; Table 2
Protocol: (§1) The expression constructs in Table 2 were derived from an original clone of the susceptible PDS gene from Hydrilla and then the Arg^304 was mutated to the listed amino acid. Expression was under the control of the lac promoter but in frame with the initiation codon of the LacZalpha-ccdB gene in the pCR4-TOPO vector (Invitrogen Inc., CA, Cat. #K4575-01).
(§2) All mutagenesis was performed, unless stated otherwise, using the TOPO-vector containing the wildtype (H4) PDS-sequence, which was extracted from an overnight culture with the Qiagen Plasmid Prep Kit as described above. The amount of the extracted plasmid was diluted to 10 ng/μl and used as template in a mutagenesis-procedure using the QuikChange Site-directed Mutagenesis Kit (Stratagene, Calif., #200518). The design of the mutagenesis-primers was conducted according to the manufacturers protocol to enable the specific change of Arg^304-codon to code for the desired amino acid. Primers (purchased from MWG-Biotech) and their introduced amino acid change are listed below with the changed codon underlined:
(§3) The reactions were performed according to the manufacturers protocol. Reactions were set up in MicroAmp-tubes on ice with 38 μl ddH2O, 5 μl 10× reaction buffer, 2 μl plasmid (10 ng/μl), 1.25 μl forward-mutagenesis primer (100 ng/μl), 1.25 μl of reverse mutagenesis primer (100 ng/μl), 1 μl dNTP-mix and 1 μl PfuTurboDNA polymerase (2.5 U/μl). The reactions were placed in a PE 9700 thermal cycler and heated to 95° C. for 30 sec followed by 12 rounds at 95° C. for 30 sec, 55° C. for 1 min and 68° C. for 12 min. The PCR was followed by a DpnI-digestion and transformation in XL1-Blue supercompetent cells as described in the manual. 4-6 resulting colonies were grown overnight in LB-medium with kanamycin and plasmid DNA was isolated as described above. The plasmid was used as template for sequencing with M13 and internal PDS-primers as described above on a LiCOR-system. Sequences were assembled and analyzed using Seqman. Introduced mutations were identified and plasmids carrying the desired mutation(s) were transferred into competent TOP10-cells, using the transformation protocol from the TOPO TA Cloning Kit. Resulting colonies were grown overnight in Wu-broth with kanamycin, aliquoted and stored at −80° C. until further use. 1 ml of Wu-cultures was used to start 1-L LB-cultures with kanamycin as described before, to express active PDS-enzyme for testing as described.
(§4) Phytoene desaturase activity and its inhibition by herbicides was determined using an in vitro system using components derived from the in vivo production of phytoene and phytoene desaturase proteins. All mutations described in Examples 3 and 4 were tested. […] The clones were used for the heterologous expression of Hydrilla-PDS-enzyme. In particular, bacterial cultures were grown from single colonies overnight in Wu-broth (6.27 g/L K2HPO4, 1.8 g/L KH2PO4, 0.5 g/L Na-citrate, 0.9 g/L (NH4)2SO4, 10 g/L tryptone, 5 g/L yeast extract, 10 g/L NaCl, 44 ml/L glycerol, 0.1 mM MgSO4, pH 7.2) with kanamycin. 1-mL was aliquoted in centrifuge tube and stored at −80° C. For expression, 1 L LB-medium with kanamycin was inoculated with 1-mL Wu-culture and grown for 24 h at 37° C. to stationary phase with shaking at 200 rpm. The cells were collected by centrifugation at 2000×g. All of the following steps were done at 4° C. unless otherwise noted. Active soluble PDS enzyme was extracted by lysing the transformed E. coli cells using a French Press at 20,000 psi in assay buffer consisting of 100 mM Tris-HCl, pH 7.2, 10 mM magnesium-chloride, 0.1 mM NADP, 0.1 mM FAD, 10 mM cysteine, 5 mM DTT, 1 mM aminocaproic acid, and 1 μg/ml leupeptin. The soluble fraction containing PDS activity was obtained by centrifugation for 10 min at 1200×g. After 24 h they were centrifuged down and used in PDS enzyme activity assays as described below.

[2] = target: Hydrilla PDS Arg^304 → Threonine (Hydrilla verticillata, UniProt Q66PY0, R304T); test: as above; assay type: biochemical; conditions: Threonine at 304; construct in frame with LacZalpha-ccdB, non-His-tagged; read-out: I50
Hydrilla PDS Arg^304 → Threonine (Hydrilla verticillata, UniProt Q66PY0, R304T), sequence (Q66PY0 1-580 R304T): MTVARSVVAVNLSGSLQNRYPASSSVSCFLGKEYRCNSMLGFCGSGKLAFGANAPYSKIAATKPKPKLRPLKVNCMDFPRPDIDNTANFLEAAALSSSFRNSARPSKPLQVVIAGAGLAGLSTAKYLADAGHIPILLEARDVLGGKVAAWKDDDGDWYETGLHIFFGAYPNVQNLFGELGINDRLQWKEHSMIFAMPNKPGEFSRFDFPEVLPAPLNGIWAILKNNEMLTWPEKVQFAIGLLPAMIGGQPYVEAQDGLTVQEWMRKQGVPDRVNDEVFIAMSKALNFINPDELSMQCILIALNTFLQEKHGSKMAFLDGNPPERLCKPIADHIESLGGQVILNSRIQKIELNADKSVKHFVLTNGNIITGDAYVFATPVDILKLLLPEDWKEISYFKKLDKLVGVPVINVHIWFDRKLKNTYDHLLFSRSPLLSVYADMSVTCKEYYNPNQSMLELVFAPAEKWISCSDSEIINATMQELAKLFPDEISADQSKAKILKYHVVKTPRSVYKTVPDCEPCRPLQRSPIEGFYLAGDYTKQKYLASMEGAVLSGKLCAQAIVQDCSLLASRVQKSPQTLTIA
Protocol: as §1, §2, §3, §4

Compound	R/S [1]	IC50 [2]
CNc1cnn(-c2cccc(C(F)(F)F)c2)c(=O)c1Cl [Norflurazon]	52.0	161 µM
CNC1=C(c2cccc(C(F)(F)F)c2)C(=O)C(c2ccccc2)O1 (stereo not shown) [Flurtamone]	2.9	8.1 µM
CCC(Oc1ccc(F)c(C(F)(F)F)c1)C(=O)NCc1ccccc1 (stereo not shown) [Beflubutamid]	0.3	1.2 µM
O=C(Nc1ccc(F)cc1)c1cccc(Oc2cccc(C(F)(F)F)c2)n1 [Piconilafen, Picolinafen]	0.5	2.7 µM
O=C1C(Cl)C(CCl)CN1c1cccc(C(F)(F)F)c1 (stereo not shown) [Fluorochloridone]	4.3	52 µM
O=C(Nc1ccc(F)cc1F)c1cccnc1Oc1cccc(C(F)(F)F)c1 [Diflufenican]	0.2	1 µM
Fluridone	10.0	
